Where no end group is shown, it is not given here.

Data on 5 molecules can be found in patent US20100204153A1, “USE OF BAND 3 PROTEIN (824-829) AND/OR MELANOCYTE-STIMULATING HORMONE RELEASE-INHIBITING FACTOR AS A THERAPEUTIC AGENT IN THE TREATMENT OF PSEUDOMONAS AERUGINOSA INFECTION” (priority 2007, published 2010).

One assay concerns HIV-1IIIB. Nature of the assay: HIV-1 antiviral assay in CEM-SS cells.
In the next assay the test system is HCMV strain AD169. The assay can be described thus: HCMV plaque formation assay in MRC-5 cells. In kind it is cell-based. Particulars: for inhibition of HCMV plaque formation as compared to the virus control experiment: 10 micrograms per ml, 7-10 days.
In a further assay the test system is murine spleen cells. Nature of the assay: Th1/Th2 cytokine profiling assay. It counts as cell-based, Balb/c mice. The following applies: 10 micrograms per ml; Ovalbumin restimulation, 72 hours; combination 0.95:1.05 mole.
A further assay deals with Pseudomonas aeruginosa. The assay can be described thus: Pseudomonas aeruginosa assay. It counts as cell-based. Particulars: 10 micrograms per ml; 5×10^5 CFU/mL; combination 0.95:1.05 mole and all other molar ratios from 1:100 to 100:1.
Assay [1] has as its system Primary Human endothelial cells (HUVEC). Nature of the assay: Endothelial cell migration assay. It counts as cell-based. Particulars: 10 micrograms per ml; 22 hours. Here is the method: Thereafter, designated concentration of testing peptides—10 micrograms per ml—was added in duplicate wells.
The test system of assay [2] is hepatitis B virus (HBV) ayw strain. The assay can be described thus: HBV assay in HepG2-2.2.15 cells (TaqMan PCR of secreted HBV DNA). In kind it is cell-based. The following applies: 10 micrograms per ml; six days.
The next assay has as its system HUVEC. The assay can be described thus: Endothelial tube formation assay. In kind it is cell-based, human. The following applies: 10 micrograms per ml; 20 hours. From the text: Positive control was vehicle only.

With `Cc1cn([C@H]2C[C@H](N=[N+]=[N-])[C@@H](CO)O2)c(=O)[nH]c1=O` [AZT], the “antiviral activity of positive control compounds (HIV-1)” value in the assay with HIV-1IIIB is recorded as “expected levels of antiviral activity”.

For `Nc1nc(O)c2ncn(COC(CO)CO)c2n1` [Ganciclovir, reference compound], the “antiviral activity of positive control compound (HCMV)” value in the assay with HCMV strain AD169 (positive control compound) is on record as “expected levels of antiviral activity”.

For the molecule `CC(C)(C)NC(=O)[C@@H]1CN(Cc2cccnc2)CCN1C[C@@H](O)C[C@@H](Cc1ccccc1)C(=O)N[C@H]1c2ccccc2C[C@H]1O` [indinavir], the “antiviral activity of positive control compounds (HIV-1)” value in the assay on HIV-1IIIB is recorded as “expected levels of antiviral activity”.

Take Pro-Leu-Gly-NH2 [Peptide 2]: in the assay with HCMV strain AD169, the “inhibition of HCMV plaque formation as compared to the virus control experiment” value is recorded as “did not inhibit”. In addition, in the assay on murine spleen cells, the “change of the production of IFN-γ” value is on record as “did not significantly change”, the “change of the production of TNF-alpha” value is listed as “did not significantly change”, the “decrease of the production of IL-2” value came out at 100% and the “decrease of the production of IL-4” value was found to be 100%. The “decrease of the production of IL-5” value in the assay on murine spleen cells turned out to be 42.3%. In the assay with Pseudomonas aeruginosa, the “inhibition of the growth of Pseudomonas aeruginosa” value is given as 100%. Moreover, the “induction of the migration of endothelial cells” value in assay [1] was found to be 8%. The “inhibition of HBV replication as compared to the virus control infection” value in assay [2] is listed as 10.9%. For the same molecule, the “inhibition of the tube formation of human endothelial cells” value in the assay with HUVEC is 16%.

On to “Tyr-Val-Lys-Arg-Val-Lys-OH (YVKRVK-OH) [Peptide 1]”, for which the “inhibition of HCMV plaque formation as compared to the virus control experiment” value in the assay on HCMV strain AD169 was “did not inhibit”. In the assay with murine spleen cells, the “change of the production of IFN-γ” value is “did not significantly change”, the “change of the production of TNF-alpha” value is given as “did not significantly change”, the “decrease of the production of IL-2” value is on record as 41.9% and the “decrease of the production of IL-4” value is 58.2%. The “decrease of the production of IL-5” value with murine spleen cells turned out to be 37.4%. Moreover, the “inhibition of the growth of Pseudomonas aeruginosa” value in the assay with Pseudomonas aeruginosa worked out at 100%. Also, the “inhibition of the migration of human endothelial cells” value in assay [1] was 8%. Moreover, the “inhibition of HBV replication as compared to the virus control infection” value in assay [2] is given as “did not inhibit”. Moreover, the “inhibition of the tube formation of human endothelial cells” value in the assay on HUVEC is 21%.
